Consider 1 compound from patent publication US11389423B2, “Pharmaceutical composition, excipient for the composition and use of the composition” (priority 2018, dated 2022).

One series deals with male rabbits. Put plainly: Effects on central nervous system, modified Irwin test. The class given is in vivo, New Zealand rabbits. Particulars: male rabbits, 17, 51 and 170 mg/kg by gavage, single dose. The protocol: Male New Zealand rabbits (n=6 per group) were used for pharmacological safety tests. All tests were performed orally (route recommended for humans) and the investigated parameters were determined after a single administration of CBD-SINT. CBD-SINT doses were determined by allometric extrapolation from the average dose used in human patients (25 mg/kg).
The dose of 51 mg/kg was used as the intermediate dose, stipulating a higher and a lower dose. Three dose ranges were used according to the Guide for Conducting Non-Clinical Toxicology and Pharmacological Safety Studies Necessary for Drug Development (ANVISA, 2013; Version 1.2). Thus, the doses used were 17, 51 and 170 mg/kg of CBD-SINT.
Effects on the central nervous system were assessed in male rabbits according to the modified Irwin test (Roux et al., 2005).
After 6 h-fasting, three doses of CBD (17, 51 and 170 mg/kg) were administered to different groups of male rabbits by gavage. Placebo was administered to the control group (1 mL/kg). The solid diet was released to the animals 1 hour after the treatments.
The clinical and behavioral effects were assessed at 0-15 min, 15, 30, 60, 120 and 180 min and 24 h after administrations. […]

Series [1] relates to Salmonella typhimurium TA100. Put plainly: AMES test, strain TA100. The class given is cell-based. To be noted: TA100, with (+S9) and without (-S9) metabolic activation, 62.5-375 μg/plate. From the text:
For the AMES test, the TA 100 and TA 98 strains of Salmonella typhimurium were used. The strain TA 100, which detects mutagens causing base pair replacement in DNA, contains a mutation in the hisG gene (hisG46), which codes for the first histidine biosynthesis enzyme, with the CG pair as the preferred point for reversion. The strain TA 98 has a mutation in the hisD gene to reverse eight repetitive GC residues and detects mutagenic compounds causing the DNA reading frame to shift. According to the methodology of direct incorporation in plates, developed by Maron and Ames (1983), different concentrations of CBD-SINT (375, 250, 125 and 62.5 μg/plate) were mixed with 0.1 mL of the bacteria culture and 2 mL of surface agar (top agar), supplemented with traces of histidine and biotin. For the tests with metabolic activation, 0.5 mL homogenized microsomal fraction S9 of rat liver (post-mitochondrial fraction, supplemented with a cofactor, prepared from the liver of rodents treated with an enzymatic inducing agent, arochloror 1254) (MOLTOX—Molecular Toxicology, USA) were added. As a negative control, double-distilled water (vehicle) was used. As a positive control for TA98, 4-nirophenylenediamine (NPD) dissolved in DMSO was used at a concentration of 10 μg/plate. […] After this period, the number of reversing colonies per plate was counted. […]

Turning to `C=C(C)[C@@H]1CCC(C)=C[C@H]1c1c(O)cc(CCCCC)cc1O` [CBD-SINT, Cannabidiol], in the series with male rabbits, the “animals' behavior or physiological status until the end of the 24 h” value was “no significant changes” and the “inactivity or refusal to consume food or water during the observation period (24 h)” value is “none of the experimental animals was inactive or refused to consume food or water”. In addition, in series [1], the “frequency of reversible mutants with the increase in concentration” value was “no increase” and the “mutagenicity ratios (MR)” value is on record as “less than 2”.
